According to patent publication US9938281B2 (Merck Sharp & Dohme Corp., priority 2012, dated 2018):

Experiments:
PI3K-delta = target: T1, PI3K-delta (Homo sapiens, UniProt O00329); test: HTRF PI3K biochemical assay, delta isoform; conditions: form screened (neutral or TFA salt) given, read-out: PI3Kdelta IC50
T1 construct: purchased Upstate; Millipore 14-604
Excerpt: HTRF PI3K Biochemical Assay to Measure Intrinsic Potency of Compound Inhibitors
This assay was developed and further optimized from a kit produced by Upstate (Millipore catalog #33-047) and has been configured for HTS and SAR screening. Briefly, this procedure exploits the exquisite specificity and high affinity binding of enzyme reaction substrate phosphatidyl(3,4,5)triphosphate (PIP3) to the GRP1 pleckstrin homology (PH) domain to generate the signal. In the absence of PIP3, an HTRF (Homogeneous Time-Resolved Fluorescence energy transfer) complex is formed consisting of europium (Eu)-labeled anti-GST, GSTtagged GRP1-PH domain, biotin-PIP3 and streptavidin conjugated APC. The native PIP3 produced by PI3-Kinase activity disrupts in a competitive manner the biotin-PIP3 from the PH domain, resulting in the loss of energy transfer (HTRF complex) and a decrease in the signal. The format of this assay is the same for all 4 isoforms of PI3K; the differences lie in the concentration of enzyme used to achieve robust assay window. The alpha, beta, and delta assays are run at 0.5, 1, and 0.3 nM enzymes and the gamma assay is run at 5 nM enzyme. The ATP concentration is 100 uM in the alpha, beta, and delta assays and 50 uM ATP in the gamma assay. All reactions are run at 5 uM PIP2.
Compounds are serially diluted (3-fold in 100% DMSO) across a 384-well polypropylene source plated from column 3 to column 12 and column 13 to column 22, to yield 10 concentration dose response for each test compound. Columns 1, 2, 23 and 24 contain either only DMSO or pharmacological known control inhibitor.
The PI3-Kinase biochemical assay was optimized using the HTRF kit provided by Upstate (Millipore). The assay kit contains six reagents: 1) 4× Reaction Buffer; 2) native PIP2 (substrate); 3) Stop (EDTA); 4) Detection Mix A (Streptavidin-APC); 5) Detection Mix B (Eu-labeled Anti-GST plus GST-tagged PH-domain); 6) Detection Mix C.
PI3Kinase Reaction Buffer is prepared by dilution the stock 1:4 with de-ionized water. […] Enzyme addition and compound pre-incubation are initiated by the addition of 1.25 ul of PI3K (at twice its final concentration) in the 1× reaction buffer to all wells using a BioRaptor. Plates are incubated at room temperature for 15 minutes. Reactions are initiated by addition of 1.25 ul of 2× substrate solution (PIP2 and ATP in 1× reaction buffer) using BioRaptor. Plates are incubated in humidified chamber at room temperature for one hour. Reactions are quenched by addition of 0.625 uL of stop solution to all wells using the BioRaptor. The quenched reactions are then processed to detect product formation by adding 0.625 uL of Detection Solution to all wells using the BioRaptor (Detection mix C, Detection Mix A, and Detection Mix B combined together in an 18:1:1 ratio prepared 2 hours prior to use).
The loss of the HTRF signal is due to the displacement of biotinylated-PIP3 from the PH domain by the PI3K-dependent conversion of PIP2 to PIP3. This loss of signal is nonlinear with respect to both increasing product and time. This non-linear detection will impact accuracy of IC50 calculations; therefore, there is a need for a correction factor to obtain more accurate IC50 values. This correction is derived from a PIP3 standard curve run in a separate assay plate. All data were calculated using the ratio of acceptor (APC) to donor (Europium) fluorescence in each well of the assay plate. […] An IC50 was then calculated fitting the % inhibition data to the equation: % inhibition=min+(Max−min)/1+([inhibitor]/IC50)^n) where min is the % inhibition with inhibitor, max is the signal in DMSO control, and n is the Hill slope.

PI3K-alpha = target: T2, PI3K-alpha (Homo sapiens, UniProt P42336); test: HTRF PI3K biochemical assay, alpha isoform; conditions: ratio PI3K-alpha IC50 value / PI3K-delta IC50 value
T2 construct: purchased Upstate; Millipore 14-602
T2 sequence (P42336 whole entry, canonical isoform): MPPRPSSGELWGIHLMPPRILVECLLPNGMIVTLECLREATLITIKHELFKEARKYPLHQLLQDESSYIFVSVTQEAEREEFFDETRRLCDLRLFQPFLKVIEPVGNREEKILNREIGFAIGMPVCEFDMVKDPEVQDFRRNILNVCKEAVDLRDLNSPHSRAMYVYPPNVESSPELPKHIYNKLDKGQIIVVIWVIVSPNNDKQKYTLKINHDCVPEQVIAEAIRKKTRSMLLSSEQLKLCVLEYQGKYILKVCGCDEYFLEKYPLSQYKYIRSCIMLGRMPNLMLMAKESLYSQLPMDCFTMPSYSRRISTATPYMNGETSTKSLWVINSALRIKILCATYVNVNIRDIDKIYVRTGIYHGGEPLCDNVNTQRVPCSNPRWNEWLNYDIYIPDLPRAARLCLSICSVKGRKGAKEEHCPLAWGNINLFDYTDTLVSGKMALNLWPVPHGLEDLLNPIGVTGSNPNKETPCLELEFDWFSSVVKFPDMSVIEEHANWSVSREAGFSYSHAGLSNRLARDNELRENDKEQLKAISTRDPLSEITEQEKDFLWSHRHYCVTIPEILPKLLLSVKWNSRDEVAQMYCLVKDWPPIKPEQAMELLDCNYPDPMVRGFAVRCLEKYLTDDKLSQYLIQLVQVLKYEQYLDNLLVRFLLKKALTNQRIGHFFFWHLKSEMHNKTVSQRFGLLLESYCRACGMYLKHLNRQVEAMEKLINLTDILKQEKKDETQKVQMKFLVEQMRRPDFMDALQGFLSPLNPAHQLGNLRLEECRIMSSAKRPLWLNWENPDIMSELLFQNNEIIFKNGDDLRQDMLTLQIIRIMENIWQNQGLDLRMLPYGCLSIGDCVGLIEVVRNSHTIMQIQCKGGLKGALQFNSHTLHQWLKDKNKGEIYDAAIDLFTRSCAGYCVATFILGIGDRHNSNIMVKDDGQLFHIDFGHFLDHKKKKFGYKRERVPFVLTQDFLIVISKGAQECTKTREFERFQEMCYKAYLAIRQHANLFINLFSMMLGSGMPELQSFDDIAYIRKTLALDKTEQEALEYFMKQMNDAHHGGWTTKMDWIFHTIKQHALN
T2 sequence (P27986 whole entry partner, canonical isoform): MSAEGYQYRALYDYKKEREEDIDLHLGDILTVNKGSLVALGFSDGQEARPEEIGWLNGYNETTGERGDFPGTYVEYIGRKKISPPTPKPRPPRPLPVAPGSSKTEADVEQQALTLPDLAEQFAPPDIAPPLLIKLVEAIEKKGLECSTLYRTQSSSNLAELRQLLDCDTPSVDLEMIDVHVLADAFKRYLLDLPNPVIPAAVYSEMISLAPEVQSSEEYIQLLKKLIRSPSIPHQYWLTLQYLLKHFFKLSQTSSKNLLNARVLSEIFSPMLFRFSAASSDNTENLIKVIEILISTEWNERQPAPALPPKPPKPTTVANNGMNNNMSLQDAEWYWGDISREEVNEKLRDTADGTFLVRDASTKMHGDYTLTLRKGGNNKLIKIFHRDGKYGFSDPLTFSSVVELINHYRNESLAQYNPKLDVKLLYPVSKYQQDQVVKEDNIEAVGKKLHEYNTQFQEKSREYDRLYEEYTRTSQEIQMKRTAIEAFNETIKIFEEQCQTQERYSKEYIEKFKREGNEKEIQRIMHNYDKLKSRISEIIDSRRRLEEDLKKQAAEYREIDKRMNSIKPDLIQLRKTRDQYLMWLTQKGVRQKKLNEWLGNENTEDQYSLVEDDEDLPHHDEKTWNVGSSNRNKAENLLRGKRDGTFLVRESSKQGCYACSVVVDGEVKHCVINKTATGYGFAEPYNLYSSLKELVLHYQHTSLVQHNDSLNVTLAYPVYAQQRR

T1 sequence (O00329 whole entry, canonical isoform): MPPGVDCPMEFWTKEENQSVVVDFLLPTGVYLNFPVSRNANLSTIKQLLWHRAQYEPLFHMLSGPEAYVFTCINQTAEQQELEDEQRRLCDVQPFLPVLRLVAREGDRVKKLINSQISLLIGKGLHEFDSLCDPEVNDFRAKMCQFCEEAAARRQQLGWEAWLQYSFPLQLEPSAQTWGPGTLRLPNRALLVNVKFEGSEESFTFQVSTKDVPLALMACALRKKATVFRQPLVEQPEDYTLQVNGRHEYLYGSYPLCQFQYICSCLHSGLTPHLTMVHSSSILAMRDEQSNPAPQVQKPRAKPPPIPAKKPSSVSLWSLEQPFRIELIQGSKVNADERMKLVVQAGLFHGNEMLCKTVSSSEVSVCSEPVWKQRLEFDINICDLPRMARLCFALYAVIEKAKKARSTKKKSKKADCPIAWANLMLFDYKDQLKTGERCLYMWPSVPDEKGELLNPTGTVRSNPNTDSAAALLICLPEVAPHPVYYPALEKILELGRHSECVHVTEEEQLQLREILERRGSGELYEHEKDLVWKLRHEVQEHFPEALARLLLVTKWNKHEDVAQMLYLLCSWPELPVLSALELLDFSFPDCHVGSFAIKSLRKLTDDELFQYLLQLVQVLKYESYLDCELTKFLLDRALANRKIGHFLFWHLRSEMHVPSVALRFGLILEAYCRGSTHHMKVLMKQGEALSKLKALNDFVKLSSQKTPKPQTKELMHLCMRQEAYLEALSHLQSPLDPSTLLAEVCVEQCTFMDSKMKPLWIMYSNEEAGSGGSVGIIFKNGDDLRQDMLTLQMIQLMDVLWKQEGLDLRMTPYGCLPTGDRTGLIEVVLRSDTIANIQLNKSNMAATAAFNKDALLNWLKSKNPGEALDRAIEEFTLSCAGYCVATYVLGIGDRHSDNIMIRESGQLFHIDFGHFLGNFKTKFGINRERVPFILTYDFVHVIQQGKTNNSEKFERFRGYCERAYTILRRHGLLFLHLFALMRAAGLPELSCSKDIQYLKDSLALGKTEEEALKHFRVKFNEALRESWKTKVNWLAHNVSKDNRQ
T1 sequence (P27986 whole entry partner, canonical isoform): as the sequence (P27986 whole entry partner, canonical isoform) above

IC50 (PI3K-delta)	Selectivity versus PI3Kalpha (PI3K-alpha)	Compound
15 nM	>10	CCn1c(C(=O)Nc2ccccc2)nc2c(N[C@H]3CCN(C(=O)C4CC4)C3)ncnc21 [Compound 6-18, 6-{[(3S)-1-(cyclopropylcarbonyl)pyrrolidin-3-yl]amino}-9-ethyl-N-phenyl-9H-purine-8-carboxamide]
17 nM	>10	CCn1c(C(=O)NC2CCCCC2)nc2c(N[C@H]3CCN(C(=O)C4CC4)C3)ncnc21 [Compound 6-14, N-cyclohexyl-6-{[(3S)-1-(cyclopropylcarbonyl)pyrrolidin-3-yl]amino}-9-ethyl-9H-purine-8-carboxamide]
2.6 nM	>10	CCn1c(-c2cnc(C)nc2)nc2c(NC3(C)CCN(C(=O)C4CC4)C3)ncnc21 (racemic) [Compound 3-18, N-[(R and S)-1-(cyclopropylcarbonyl)-3-methylpyrrolidin-3-yl]-9-ethyl-8-(2-methylpyrimidin-5-yl)-9H-purin-6-amine]
7.7 nM	>10	CCC(=O)N1CC[C@H](Nc2ncnc3c2nc(-c2ccc4cc[nH]c4c2)n3C)C1 [Compound 3-4, (S)-1-(3-((8-(1H-indol-6-yl)-9-methyl-9H-purin-6-yl)amino)pyrrolidin-1-yl)propan-1-one]
3.7 nM	>10	CCn1c(-c2cnc(C)nc2)nc2c(N[C@H]3CC[C@@H](C(=O)N(C)C4CC4)C3)ncnc21 [Compound 5-5, (1R,3S)-N-cyclopropyl-3-{[9-ethyl-8-(2-methylpyrimidin-5-yl)-9H-purin-6-yl]amino}-N-methylcyclopentanecarboxamide]
34 nM	>10	CCn1c(-c2cnc(C)nc2)nc2c(NC3CN(C(=O)C4CC4)CC3F)ncnc21 (racemic) [Compound 3-26, N-[(3R,4S and 3S,4R)-1-(cyclopropylcarbonyl)-4-fluoropyrrolidin-3-yl]-9-ethyl-8-(2-methylpyrimidin-5-yl)-9H-purin-6-amine]

Second part, the molecule before the results:

Compound	IC50 (PI3K-delta)	Selectivity versus PI3Kalpha (PI3K-alpha)
CCn1ncc(-c2nc3c(N[C@@H]4CCN(C(=O)OC(C)(C)C)C4)ncnc3n2C)c1C [Compound 1-1, tert-butyl (3R)-3-{[8-(1-ethyl-5-methyl-1H-pyrazol-4-yl)-9-methyl-9H-purin-6-yl]amino}pyrrolidine-1-carboxylate]	15 nM	>10
CCC(=O)N1CC[C@H](N(C)c2ncnc3c2nc(-c2cnc(C(C)(C)C)s2)n3CC)C1 [Compound 2-11, (S)-1-(3-((8-(2-(tert-butyl)thiazol-5-yl)-9-ethyl-9H-purin-6-yl)(methyl)amino)pyrrolidin-1-yl)propan-1-one]	3.6 nM	>10
CCn1c(-c2ccc(C(F)(F)F)nc2)nc2c(N[C@H]3CCN(C(=O)OC(C)(C)C)C3)ncnc21 [Compound 1-22, tert-butyl (3S)-3-({9-ethyl-8-[6-(trifluoromethyl)pyridin-3-yl]-9H-purin-6-yl}amino)pyrrolidine-1-carboxylate]	< 1 nM	>10
CCn1c(-c2cnc(C)nc2)nc2c(N[C@H]3CCN(C(=O)C4C5CCNC54)C3)ncnc21 (mixture of isomers) [Compound 2-85, N-[(3S)-1-(1(R and S), 5(R and S), 6(R and S)-2-azabicyclo[3.1.0]hex-6-ylcarbonyl)pyrrolidin-3-yl]-9-ethyl-8-(2-methylpyrimidin-5-yl)-9H-purin-6-amine]	7.3 nM	>10
CCn1c(-c2cnc(C)nc2)nc2c(N[C@H]3C[C@H](C(=O)O)N(C(=O)OC(C)(C)C)C3)ncnc21 [Compound 1-18, (4S)-1-(tert-butoxycarbonyl)-4-{[9-ethyl-8-(2-methylpyrimidin-5-yl)-9H-purin-6-yl]amino}-D-proline]	2 nM	>10
